These results are taken from ChEMBL document CHEMBL5257145, “1,2,4-Triazine Derivatives as NLRP3 Inhibitors for Treating Diseases” (ACS Med Chem Lett, 2023).

pIC50: −log10 of the molar value.

In this assay the target is NACHT, LRR and PYD domains-containing protein 3 (Homo sapiens, UniProt Q96P20). The assay can be described thus: Inhibition of NLRP3 inflammasome activation in PMA-differentiated human THP-1 cells assessed as reduction in IL-1beta secretion preincubated for 20 hrs followed by nigericin addition and measured after 3 hrs by HTRF assay. The assay is classed as cell-based.
NACHT, LRR and PYD domains-containing protein 3, sequence (Q96P20 whole entry, the tested form may be a part): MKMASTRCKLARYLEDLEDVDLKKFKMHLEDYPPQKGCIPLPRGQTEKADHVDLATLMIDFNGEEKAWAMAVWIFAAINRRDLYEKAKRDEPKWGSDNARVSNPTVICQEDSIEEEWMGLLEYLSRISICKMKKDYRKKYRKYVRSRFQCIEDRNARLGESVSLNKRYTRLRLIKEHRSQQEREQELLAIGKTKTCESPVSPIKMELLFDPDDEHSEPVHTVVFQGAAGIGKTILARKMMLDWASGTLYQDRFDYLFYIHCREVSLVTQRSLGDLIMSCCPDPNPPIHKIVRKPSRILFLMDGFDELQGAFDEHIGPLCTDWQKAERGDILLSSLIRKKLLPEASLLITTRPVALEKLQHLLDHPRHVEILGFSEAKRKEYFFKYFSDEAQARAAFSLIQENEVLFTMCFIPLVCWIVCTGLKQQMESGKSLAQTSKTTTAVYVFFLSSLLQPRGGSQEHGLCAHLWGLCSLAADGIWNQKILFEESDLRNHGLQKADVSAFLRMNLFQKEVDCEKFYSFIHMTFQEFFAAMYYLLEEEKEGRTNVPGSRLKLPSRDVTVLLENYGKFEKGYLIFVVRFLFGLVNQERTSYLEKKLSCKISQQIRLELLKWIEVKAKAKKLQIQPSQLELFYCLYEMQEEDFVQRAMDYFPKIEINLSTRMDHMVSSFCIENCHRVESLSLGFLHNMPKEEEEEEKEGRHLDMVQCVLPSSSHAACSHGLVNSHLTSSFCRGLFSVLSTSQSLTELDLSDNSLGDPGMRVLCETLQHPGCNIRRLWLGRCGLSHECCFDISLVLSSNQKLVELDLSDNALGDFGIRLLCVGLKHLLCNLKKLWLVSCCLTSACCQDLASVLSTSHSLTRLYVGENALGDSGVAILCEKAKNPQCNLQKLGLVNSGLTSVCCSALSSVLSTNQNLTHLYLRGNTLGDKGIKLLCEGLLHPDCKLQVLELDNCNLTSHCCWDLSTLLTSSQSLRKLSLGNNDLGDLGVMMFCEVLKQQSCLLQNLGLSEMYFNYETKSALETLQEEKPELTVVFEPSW
As to `Cc1nc(N[C@@H]2CCCN(C)C2)nnc1-c1ccc(Cl)cc1O`, the pIC50 (as a rule, −log10 of the IC50, conventionally taken in molar units) is > 9.00. Consider `Cc1nc(N[C@@H]2CCCN(C)C2)nnc1-c1ccc(C(F)(F)F)cc1O`, for which the negative logarithm of the IC50 (pIC50) is > 9.00. For `COc1ccc(-c2nnc(N[C@@H]3CCCN(C)C3)nc2C)c(O)c1`, the negative-log IC50 (pIC50) is > 9.00. Turning to `Cc1cc(O)c(-c2nnc(N[C@@H]3CCCN(C)C3)nc2C)c(F)c1`, the negative logarithm of the IC50 (pIC50) was > 9.00.

As for `COc1cc(O)c(-c2nnc(N[C@@H]3CCCN(C)C3)nc2C)c(F)c1`, the negative logarithm of the IC50 (pIC50) is > 9.00. As to `Cc1nc(N[C@@H]2CCCN(C)C2)nnc1-c1ccc(C2CC2)cc1O`, the negative logarithm of the IC50 (pIC50) was > 9.00.
